A short description of series [1]: AUC (0 to infinity) in Sprague-Dawley rat at 10 mg/kg, iv. The format is ADME, organism-based. Also noted: time infinity, dose 10 mg/kg, route intravenous. The settings on record: plasma.
Series [2] can be described thus: Half life in human microsomes. In kind it is ADME, Microsome.
The subject of the next series is Plasma. Briefly: Metabolic stability in rat plasma after 2 hrs. The format is ADME, cell-free.
Series [3] in a line: Half life in Sprague-Dawley rat at 10 mg/kg, iv. In kind it is ADME, organism-based. On the set-up: dose 10 mg/kg, route intravenous. The conditions noted are these: in vivo.
The target of series [4] is Voltage-dependent T-type calcium channel subunit alpha-1G (Homo sapiens, UniProt O43497). As to the kind of experiment: Inhibition of T-type calcium channel subunit alpha-1G (unknown origin) expressed in HEK293 cells assessed as inactivation of channel current at holding potential of 30 to 100mV by whole-cell patch clamp method. In kind it is cell-based.
Sequence of Voltage-dependent T-type calcium channel subunit alpha-1G (O43497 whole entry): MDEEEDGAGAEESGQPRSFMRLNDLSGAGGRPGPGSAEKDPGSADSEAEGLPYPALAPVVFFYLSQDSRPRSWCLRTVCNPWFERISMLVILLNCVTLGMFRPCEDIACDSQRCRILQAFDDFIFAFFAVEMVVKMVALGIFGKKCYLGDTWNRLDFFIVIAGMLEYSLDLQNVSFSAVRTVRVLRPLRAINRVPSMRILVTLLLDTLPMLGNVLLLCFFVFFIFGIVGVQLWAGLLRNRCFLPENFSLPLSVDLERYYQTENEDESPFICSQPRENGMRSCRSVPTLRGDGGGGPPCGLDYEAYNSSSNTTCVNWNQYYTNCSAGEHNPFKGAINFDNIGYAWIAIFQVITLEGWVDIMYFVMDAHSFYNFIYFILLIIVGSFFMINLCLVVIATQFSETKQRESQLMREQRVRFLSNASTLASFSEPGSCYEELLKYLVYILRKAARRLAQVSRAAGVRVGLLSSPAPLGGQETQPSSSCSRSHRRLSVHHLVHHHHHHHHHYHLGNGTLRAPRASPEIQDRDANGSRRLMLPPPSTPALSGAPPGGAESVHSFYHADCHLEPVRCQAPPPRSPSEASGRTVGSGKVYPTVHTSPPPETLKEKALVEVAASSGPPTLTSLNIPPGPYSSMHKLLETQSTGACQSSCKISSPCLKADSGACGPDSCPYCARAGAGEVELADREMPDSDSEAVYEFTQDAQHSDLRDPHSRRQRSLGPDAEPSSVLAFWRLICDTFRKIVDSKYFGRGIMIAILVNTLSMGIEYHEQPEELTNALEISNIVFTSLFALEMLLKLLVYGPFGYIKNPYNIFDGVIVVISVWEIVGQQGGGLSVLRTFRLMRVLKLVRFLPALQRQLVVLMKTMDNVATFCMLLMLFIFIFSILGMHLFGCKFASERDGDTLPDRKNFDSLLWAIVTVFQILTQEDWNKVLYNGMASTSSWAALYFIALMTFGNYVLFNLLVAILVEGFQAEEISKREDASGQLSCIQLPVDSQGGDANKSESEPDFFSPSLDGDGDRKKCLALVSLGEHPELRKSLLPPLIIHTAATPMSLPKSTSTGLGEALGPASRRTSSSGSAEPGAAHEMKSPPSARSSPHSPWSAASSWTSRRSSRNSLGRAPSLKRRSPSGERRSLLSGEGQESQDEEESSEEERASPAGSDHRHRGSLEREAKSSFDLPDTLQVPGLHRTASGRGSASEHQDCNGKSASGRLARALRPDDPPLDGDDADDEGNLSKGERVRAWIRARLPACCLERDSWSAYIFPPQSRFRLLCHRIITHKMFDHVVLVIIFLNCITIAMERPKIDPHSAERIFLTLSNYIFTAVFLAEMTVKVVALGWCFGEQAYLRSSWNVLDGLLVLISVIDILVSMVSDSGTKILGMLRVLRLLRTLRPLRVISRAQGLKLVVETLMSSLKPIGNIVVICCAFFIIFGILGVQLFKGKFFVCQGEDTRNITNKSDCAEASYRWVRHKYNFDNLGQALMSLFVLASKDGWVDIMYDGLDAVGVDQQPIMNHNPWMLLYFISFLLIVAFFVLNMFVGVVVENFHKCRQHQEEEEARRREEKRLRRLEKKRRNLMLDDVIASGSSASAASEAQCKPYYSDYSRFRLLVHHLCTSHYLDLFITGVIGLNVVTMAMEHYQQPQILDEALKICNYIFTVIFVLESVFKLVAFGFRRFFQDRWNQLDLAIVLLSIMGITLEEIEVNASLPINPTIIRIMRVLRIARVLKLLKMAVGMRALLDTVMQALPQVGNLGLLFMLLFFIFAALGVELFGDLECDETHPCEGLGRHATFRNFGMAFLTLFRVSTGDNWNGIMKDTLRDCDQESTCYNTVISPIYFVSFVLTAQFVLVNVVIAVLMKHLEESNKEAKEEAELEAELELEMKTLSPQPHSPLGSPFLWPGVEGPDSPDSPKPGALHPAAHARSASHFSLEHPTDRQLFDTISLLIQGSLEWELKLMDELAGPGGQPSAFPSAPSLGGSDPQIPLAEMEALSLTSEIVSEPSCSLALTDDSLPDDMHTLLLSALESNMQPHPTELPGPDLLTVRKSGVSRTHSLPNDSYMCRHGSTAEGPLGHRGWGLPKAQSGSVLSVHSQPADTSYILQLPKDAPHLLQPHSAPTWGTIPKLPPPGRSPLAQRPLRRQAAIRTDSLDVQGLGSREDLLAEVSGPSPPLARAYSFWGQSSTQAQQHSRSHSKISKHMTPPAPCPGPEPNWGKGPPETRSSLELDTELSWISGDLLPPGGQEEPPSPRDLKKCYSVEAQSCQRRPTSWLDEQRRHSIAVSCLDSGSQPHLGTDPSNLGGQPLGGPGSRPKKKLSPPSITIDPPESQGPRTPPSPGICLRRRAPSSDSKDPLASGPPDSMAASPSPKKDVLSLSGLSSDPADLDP
Series [5] has as its target Voltage-dependent L-type calcium channel subunit alpha-1C (Homo sapiens, UniProt Q13936). Briefly: Inhibition of L-type calcium channel subunit-1C (unknown origin) expressed in HEK293 cells by whole-cell patch clamp method. The format is cell-based. (In general: The patch-clamp technique gives a direct electrical read-out from membranes.)
Series [6] in a line: AUC (0 to infinity) in Sprague-Dawley rat at 10 mg/kg, po. The format is ADME, organism-based. On the set-up: time infinity, dose 10 mg/kg, route oral. The conditions noted are these: plasma.
Series [7] can be described thus: Cmax in Sprague-Dawley rat at 10 mg/kg, po. In kind it is ADME, organism-based. On the set-up: dose 10 mg/kg, route oral. The conditions noted are these: in vivo.
Series [8] concerns HEK293. Briefly: Selectivity ratio of IC50 for L-type calcium channel subunit-1C (unknown origin) to IC50 for T-type calcium channel subunit alpha-1G (unknown origin) expressed in HEK293 cells. The format is cell-based. The conditions noted are these: Homo sapiens.
Series [9] can be described thus: Tmax in Sprague-Dawley rat at 10 mg/kg, po. In kind it is ADME, organism-based. On the set-up: dose 10 mg/kg, route oral. The conditions noted are these: in vivo.
Series [10] in a line: Bioavailability in Sprague-Dawley rat at 10 mg/kg, […]. In kind it is ADME, organism-based. The conditions noted are these: in vivo.
The nature of series [11]: Half life in Sprague-Dawley rat at 10 mg/kg, po. Also noted: dose 10 mg/kg, route oral. The settings on record: in vivo. In kind it is ADME, organism-based.
The target in series [12] is Voltage-gated inwardly rectifying potassium channel KCNH2 (Homo sapiens, UniProt Q12809). Briefly: Inhibition of human ERG by whole-cell patch clamp method.
Sequence of Voltage-gated inwardly rectifying potassium channel KCNH2 (Q12809 whole entry): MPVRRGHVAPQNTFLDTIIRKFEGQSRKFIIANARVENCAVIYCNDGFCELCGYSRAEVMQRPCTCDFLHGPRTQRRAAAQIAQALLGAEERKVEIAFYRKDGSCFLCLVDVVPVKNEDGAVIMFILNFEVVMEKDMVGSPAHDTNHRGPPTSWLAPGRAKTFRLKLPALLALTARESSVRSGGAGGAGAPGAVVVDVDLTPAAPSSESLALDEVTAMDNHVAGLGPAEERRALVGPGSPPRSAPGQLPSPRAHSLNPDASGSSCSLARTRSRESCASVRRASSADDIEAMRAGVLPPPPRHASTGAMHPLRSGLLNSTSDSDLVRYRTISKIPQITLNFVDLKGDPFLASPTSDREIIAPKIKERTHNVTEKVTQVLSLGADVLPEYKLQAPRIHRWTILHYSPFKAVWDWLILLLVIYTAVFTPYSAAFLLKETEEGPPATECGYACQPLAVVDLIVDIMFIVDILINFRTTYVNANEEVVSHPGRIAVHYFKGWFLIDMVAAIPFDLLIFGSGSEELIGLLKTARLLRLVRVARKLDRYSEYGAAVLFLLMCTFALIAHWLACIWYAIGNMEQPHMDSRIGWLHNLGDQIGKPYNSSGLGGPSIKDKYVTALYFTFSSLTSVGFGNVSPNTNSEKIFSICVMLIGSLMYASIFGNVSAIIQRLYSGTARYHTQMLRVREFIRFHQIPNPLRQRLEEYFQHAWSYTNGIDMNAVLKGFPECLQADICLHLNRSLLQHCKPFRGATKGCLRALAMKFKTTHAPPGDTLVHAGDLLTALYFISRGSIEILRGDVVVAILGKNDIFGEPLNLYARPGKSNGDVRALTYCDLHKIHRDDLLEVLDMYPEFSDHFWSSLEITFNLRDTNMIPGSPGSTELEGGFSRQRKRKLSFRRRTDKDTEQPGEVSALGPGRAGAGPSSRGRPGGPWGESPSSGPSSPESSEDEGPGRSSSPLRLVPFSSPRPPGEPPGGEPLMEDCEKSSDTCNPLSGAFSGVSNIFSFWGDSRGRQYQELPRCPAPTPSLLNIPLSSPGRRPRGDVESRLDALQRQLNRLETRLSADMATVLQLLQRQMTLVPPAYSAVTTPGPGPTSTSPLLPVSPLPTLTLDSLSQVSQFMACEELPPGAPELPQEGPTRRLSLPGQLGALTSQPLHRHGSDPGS
The subject of series [13] is HEK293. Briefly: Selectivity ratio of IC50 for human ERG to IC50 for T-type calcium channel subunit alpha-1G (unknown origin) expressed in human HEK293 cells. The format is cell-based.

As a reminder, the AUC(0-inf) is total exposure, with the tail of the curve extrapolated. A higher AUC(0-inf) goes with high exposure. By half-life is commonly meant the time needed for the level to fall by half in the phase considered. `COC(=O)C(CCCN(C)CCCc1nc2ccccc2[nH]1)(c1ccc(Br)cc1)C(C)C` (stereo unspecified) showed an AUC(0-inf) in series [1] of 906 ng·h/mL. Also, the half-life in series [2] came to 2 h; in [3], 1.3 h. Besides, in the series with Plasma, the Stability entry is on record as “Stable”.
As a reminder, the IC50 is the midpoint of a concentration-inhibition curve. One may read the Cmax as the maximum level reached in the sampled fluid or tissue. The term Tmax denotes the time at which the peak concentration occurs. The bioavailability is dose-corrected exposure relative to a reference, in per cent. The low end stands for little systemic uptake, the high end for much systemic uptake. Take `COC(=O)C(CCC(=O)N(C)CCCc1nc2ccccc2[nH]1)(c1ccc(Br)cc1)C(C)C` (stereo unspecified): the results for the IC50 in series [4], in series [5] and in series [12] were 0.056 µM, 5.42 µM and 12.5 µM, respectively. Besides, the values for the AUC(0-inf) in series [6] and in [1] were 5800 ng·h/mL and 9620 ng·h/mL, respectively. For the same compound, the concentration in series [7] peaked (Cmax) at 4580 ng/mL. For the same compound, the figures for the Ratio IC50 in the series on HEK293 [8] and with HEK293 [13] were 96.8 and > 220, respectively. For the same compound, the Tmax in [9] was 0.5 h. Moreover, the half-life in series [2] turned out to be 4 h; in series [3], 1.76 h; in series [11] it was 0.795 h. In the series with Plasma, the Stability result was “Stable”. In [10], this compound gave a bioavailability of 60.3%.
Regarding `COc1ccccc1N1CCN(CCCC(C(=O)O)(c2ccc(Br)cc2)C(C)C)CC1` (stereo unspecified), the results for the IC50 in series [4] and in series [12] were 3.26 µM and 3.96 µM, respectively.
Take `COC(=O)C(CCC(=O)N1CCN(c2ccccc2OC)CC1)(c1ccc(Br)cc1)C(C)C` (stereo unspecified): the values for the IC50 in series [4] and in series [5] were 0.654 µM and 5.9 µM, respectively. Moreover, the values for the AUC(0-inf) in [6] and in series [1] were 467 ng·h/mL and 5080 ng·h/mL, respectively. The compound further returned a Cmax in series [7] of 218 ng/mL. Moreover, in series [9], the time to peak (Tmax) was 0.5 h. For the same compound, the half-life in [2] was 3.67 h; in series [3], 4.9 h; in [11] it was 2.21 h. Moreover, the Stability entry with Plasma is reported as “Stable”. The bioavailability in series [10] is 9.2%.
`COC(=O)C(CCCN1CCC(c2ccccc2OC)CC1)(c1ccc(Br)cc1)C(C)C` (stereo unspecified): in [4], the IC50 turned out to be 2.65 µM.
`COC(=O)C(CCCN1CC=C(c2ccccc2OC)CC1)(c1ccc(Br)cc1)C(C)C` (stereo unspecified): the figures for the IC50 in series [4] and in series [12] were 3.24 µM and 1.26 µM, respectively.
Consider `CC(C)C(CCCN(C)CCCc1nc2ccccc2[nH]1)(C(=O)O)c1ccc(Br)cc1` (stereo unspecified), for which the IC50 in series [4] is 1.36 µM; in series [12], 2.34 µM.

Source of the values: ChEMBL document CHEMBL3112460, “Successful reduction of off-target hERG toxicity by structural modification of a T-type calcium channel blocker” (Bioorg Med Chem Lett, 2014).
